Measured values reported in PubChem BioAssay (NCI).
Where “and” joins values, the source holds several entries; their conditions need not be identical. Equal entries are not always repeated.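 Briefly, cells in 96-well plates were exposed to five compound concentrations for 48 h, and endpoints were estimated by linear interpolation. GI50 marks 50% less growth. TGI: concentration producing complete growth inhibition.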

Assays:
Assay in all cases: DTP human tumour cell line panel, 48 h
HCT-116 colon = system: HCT-116 colon
HOP-92 NSCLC = system: HOP-92 NSCLC
K-562 leukemia = system: K-562 leukemia
MDA-MB-231 breast = system: MDA-MB-231 breast
NCI-H460 lung = system: NCI-H460 lung
SF-539 CNS = system: SF-539 CNS
SW-620 colon = system: SW-620 colon
TK-10 renal = system: TK-10 renal
UACC-62 melanoma = system: UACC-62 melanoma
HS 578T breast = system: HS 578T breast

Cc1cc(C)c2c(c1)C/C(=C\c1cccc(C)c1C(=O)O)C2=O
TGI (HCT-116 colon): > 100 µM
TGI (HOP-92 NSCLC): > 100 µM
TGI (K-562 leukemia): > 100 µM
TGI (MDA-MB-231 breast): > 100 µM
TGI (NCI-H460 lung): > 100 µM
TGI (SF-539 CNS): > 100 µM
TGI (SW-620 colon): > 100 µM
TGI (TK-10 renal): > 100 µM
TGI (UACC-62 melanoma): > 100 µM

COc1cc(S(=O)(=O)Nc2ccc(-c3csc(N4C(=O)C(Cl)C4c4ccccc4O)n3)cc2)ccc1Cl (configuration not stated)
TGI (HCT-116 colon): > 100 µM
TGI (HOP-92 NSCLC): 91.9 µM
TGI (HS 578T breast): > 100 µM
TGI (K-562 leukemia): > 100 µM
TGI (NCI-H460 lung): > 100 µM
TGI (SF-539 CNS): > 100 µM
TGI (SW-620 colon): > 100 µM
TGI (UACC-62 melanoma): 59.1 µM

c1ccc2c[n+](CCCC[n+]3ccc4ccccc4c3)ccc2c1
TGI (HCT-116 colon): > 100 µM
TGI (K-562 leukemia): > 100 µM
TGI (MDA-MB-231 breast): > 100 µM
TGI (NCI-H460 lung): > 100 µM
TGI (SF-539 CNS): > 100 µM
TGI (SW-620 colon): > 100 µM
TGI (TK-10 renal): > 100 µM
TGI (UACC-62 melanoma): > 100 µM

COc1cccc2c1OC1c3ccccc3OCC1(O)C2 (configuration not stated)
TGI (HCT-116 colon): > 100 µM
TGI (HOP-92 NSCLC): > 100 µM
TGI (K-562 leukemia): > 100 µM
TGI (MDA-MB-231 breast): > 100 µM
TGI (SF-539 CNS): > 100 µM
TGI (SW-620 colon): > 100 µM
TGI (TK-10 renal): > 100 µM
TGI (UACC-62 melanoma): > 100 µM

COc1cccc(C(C#N)NNC(=O)c2c(Cl)c(Cl)c(Cl)c(Cl)c2-c2nc3ccc(C(=O)c4ccccc4)cc3[nH]2)c1O (configuration not stated)
TGI (HCT-116 colon): > 100 µM
TGI (HOP-92 NSCLC): > 100 µM
TGI (K-562 leukemia): > 100 µM
TGI (MDA-MB-231 breast): > 100 µM
TGI (SW-620 colon): > 100 µM
TGI (TK-10 renal): > 100 µM

CC(C)[C@H](C)/C=C/[C@@H](C)C1CC[C@H]2[C@@]34C=C[C@]5(C[C@@H](O)CC[C@]5(C)[C@H]3CC[C@]12C)OO4 (some centres not stated)
TGI (HCT-116 colon): 42.8 µM
TGI (HOP-92 NSCLC): 92.3 µM
TGI (MDA-MB-231 breast): 84.9 µM
TGI (NCI-H460 lung): > 100 µM
TGI (SF-539 CNS): > 100 µM
TGI (SW-620 colon): 78.8 µM
TGI (TK-10 renal): > 100 µM
TGI (UACC-62 melanoma): 43.6 µM

Oc1c(Cl)cc2cc1-c1cc(cc(Cl)c1O)CCc1c(cc(Cl)c(O)c1Cl)-c1cc(Cl)c(c(Cl)c1O)/C=C\2
TGI (HCT-116 colon): 15.3 µM
TGI (HOP-92 NSCLC): 34.7 µM
TGI (HS 578T breast): 33.7 µM
TGI (K-562 leukemia): > 50 µM
TGI (NCI-H460 lung): 13.1 µM
TGI (SW-620 colon): 31.5 µM
TGI (UACC-62 melanoma): 18 µM

Cc1cc2c(=O)c3ccc(Cl)cc3[nH]c2c(C(N)=O)c1C
TGI (HCT-116 colon): > 100 µM
TGI (HOP-92 NSCLC): > 100 µM
TGI (K-562 leukemia): > 100 µM
TGI (NCI-H460 lung): > 100 µM
TGI (SF-539 CNS): > 100 µM
TGI (SW-620 colon): > 100 µM
TGI (TK-10 renal): > 100 µM
TGI (UACC-62 melanoma): > 100 µM

Cc1ccc(S(=O)(=O)OCCC2CN(C(=O)OCc3ccccc3)C(C)(C)O2)cc1 (configuration not stated)
TGI (HCT-116 colon): > 100 µM
TGI (HOP-92 NSCLC): > 100 µM
TGI (K-562 leukemia): > 100 µM
TGI (MDA-MB-231 breast): > 100 µM
TGI (NCI-H460 lung): 14.3 µM
TGI (SF-539 CNS): > 100 µM
TGI (SW-620 colon): > 100 µM
TGI (TK-10 renal): > 100 µM
TGI (UACC-62 melanoma): > 100 µM

O=C1C(N2CCN(CCOCCO)CC2)=C(Cl)C(=O)c2ncccc21
GI50 (HCT-116 colon): 18.5 µM
TGI (HCT-116 colon): 33.5 µM
GI50 (HOP-92 NSCLC): 16.7 µM
TGI (HOP-92 NSCLC): 6.27 µM and 31.4 µM
GI50 (K-562 leukemia): 13.3 µM
TGI (K-562 leukemia): 34.4 µM
TGI (MDA-MB-231 breast): 34.2 µM
TGI (NCI-H460 lung): > 100 µM
TGI (SF-539 CNS): 44.6 µM
TGI (SW-620 colon): 50.7 µM
TGI (TK-10 renal): 48.5 µM
TGI (UACC-62 melanoma): 43.8 µM

Cc1cn(C2CC(COCc3ccccc3)N(CCO[Si](C)(C)C(C)(C)C)O2)c(=O)[nH]c1=O (configuration not stated)
TGI (HCT-116 colon): 43 µM
TGI (HOP-92 NSCLC): 25.7 µM
TGI (K-562 leukemia): 19.3 µM
TGI (MDA-MB-231 breast): 33.2 µM
TGI (NCI-H460 lung): 35.2 µM
TGI (SF-539 CNS): 33.9 µM
TGI (SW-620 colon): 35.6 µM
TGI (TK-10 renal): 27.3 µM
TGI (UACC-62 melanoma): 24.3 µM

O=C1c2ccccc2C2(c3ccc(F)cc3)NCCN12 (configuration not stated)
TGI (HCT-116 colon): > 100 µM
TGI (HS 578T breast): > 100 µM
TGI (K-562 leukemia): > 100 µM
TGI (MDA-MB-231 breast): > 100 µM
TGI (NCI-H460 lung): > 100 µM
TGI (SW-620 colon): > 100 µM
TGI (TK-10 renal): > 100 µM
TGI (UACC-62 melanoma): > 100 µM

Cc1cc(S(=O)(=O)Nc2nc3cscc3c(=O)n2N)c(S)cc1Cl
TGI (HCT-116 colon): > 100 µM
TGI (K-562 leukemia): > 100 µM
TGI (MDA-MB-231 breast): > 100 µM
TGI (NCI-H460 lung): > 100 µM
TGI (SF-539 CNS): > 100 µM
TGI (SW-620 colon): > 100 µM
TGI (TK-10 renal): > 100 µM
TGI (UACC-62 melanoma): > 100 µM

CCC1=C(C[C@H]2NCCc3cc(OC)c(OC)cc32)C[C@H]2c3cc(OC)c(OC)cc3CCN2C1
TGI (HCT-116 colon): 0.0745 µM
TGI (HOP-92 NSCLC): 0.095 µM
TGI (NCI-H460 lung): 0.134 µM
TGI (SF-539 CNS): 0.148 µM
TGI (SW-620 colon): 11.3 µM
TGI (UACC-62 melanoma): 0.138 µM

COc1ccc(OC)c2c(C)ccnc12
TGI (HCT-116 colon): > 100 µM
TGI (HOP-92 NSCLC): 90.8 µM
TGI (K-562 leukemia): > 100 µM
TGI (MDA-MB-231 breast): > 100 µM
TGI (NCI-H460 lung): > 100 µM
TGI (SF-539 CNS): > 68.7 µM
TGI (SW-620 colon): > 85.6 µM
TGI (TK-10 renal): > 100 µM
TGI (UACC-62 melanoma): 93.5 µM

O=C1CCCCC/C1=C\c1cccc(F)c1
TGI (HCT-116 colon): > 100 µM
TGI (K-562 leukemia): > 100 µM
TGI (MDA-MB-231 breast): > 100 µM
TGI (NCI-H460 lung): > 100 µM
TGI (SF-539 CNS): > 100 µM
TGI (SW-620 colon): > 100 µM
TGI (TK-10 renal): > 100 µM
TGI (UACC-62 melanoma): > 100 µM

Cn1c2ccccc2n2c3ncccc3c(=O)cc12
TGI (HCT-116 colon): 85.9 µM
TGI (HOP-92 NSCLC): > 100 µM
TGI (K-562 leukemia): > 100 µM
TGI (MDA-MB-231 breast): > 100 µM
TGI (NCI-H460 lung): > 100 µM
TGI (SF-539 CNS): > 100 µM
TGI (SW-620 colon): > 100 µM
TGI (TK-10 renal): > 100 µM

COC(=O)C1C(=O)CC(C)(O)C(C(=O)OC)C1c1ccc(N(C)C)cc1 (configuration not stated)
TGI (HCT-116 colon): 21 µM
TGI (HOP-92 NSCLC): > 100 µM
TGI (K-562 leukemia): > 100 µM
TGI (MDA-MB-231 breast): > 100 µM
TGI (NCI-H460 lung): > 100 µM
TGI (SW-620 colon): > 100 µM
TGI (TK-10 renal): > 100 µM
TGI (UACC-62 melanoma): > 100 µM

O=c1c2ccccc2nc(N/N=C/c2ccc([N+](=O)[O-])cc2)n1-c1ccccc1
TGI (HCT-116 colon): > 100 µM
TGI (HS 578T breast): 68.1 µM
TGI (K-562 leukemia): > 100 µM
TGI (MDA-MB-231 breast): > 100 µM
TGI (NCI-H460 lung): > 100 µM
TGI (TK-10 renal): 56.3 µM
TGI (UACC-62 melanoma): > 100 µM

O=C1c2ccncc2C(=O)c2c(O)ccc(O)c21
TGI (HCT-116 colon): 10.3 µM
TGI (HOP-92 NSCLC): 32.4 µM
TGI (K-562 leukemia): 55.5 µM
TGI (NCI-H460 lung): 29.4 µM
TGI (SF-539 CNS): 13.4 µM
TGI (SW-620 colon): 11.5 µM
TGI (TK-10 renal): 42.3 µM
TGI (UACC-62 melanoma): 10.6 µM
